One series has as its system S. aureus. Nature of the series: Minimum inhibitory concentration, broth microdilution (CLSI). In kind it is cell-based, Staphylococcus aureus. The method, then: (§1) The antimicrobial activity of the compounds was evaluated by a broth microdilution assay using the procedure described by CLSI. Briefly, bacteria were grown to mid-log phase in Muller Hinton broth (MHB) with shaking at 120 rpm and incubated at 37 °C for 12–16 h. Following incubation, bacteria were washed three times in PBS pH 7.4 at 3500 g for 10 min. After washing, bacteria were diluted with fresh MHB. The turbidity of the bacterial suspensions was adjusted so that OD660nm was 0.1, which gave 1 × 10^8 CFU/mL, and then further diluted to achieve 5 × 10^5 CFU/mL as a final bacterial concentration. Each compound was diluted (250–3.9 µM) through two-fold dilution. Wells in microtiter plates were loaded with 100 µL of inoculum containing 5 × 10^5 CFU/mL bacteria. Wells without any compound and containing only bacteria were used as negative controls (i.e., no inhibition of growth). Wells with media only were set as blank. The microtiter plate was wrapped with paraffin to prevent evaporation and incubated with shaking at 120 rpm and 37 °C for 18–24 h. After incubation, spectrophotometric readings were taken. The well without any bacterial growth and showing zero spectrophotometric reading was regarded as the MIC of the compounds.

A further series has as its system E. coli. Described as above. In kind it is cell-based, Escherichia coli. The method, then:
as §1

The subject of the next series is MRC-5 human fibroblasts. Nature of the series: Toxicity assay, Alamar Blue. In kind it is cell-based. As to conditions: for IC50: MRC5, MRC-5 human fibroblasts, 72 h drug incubation, Alamar Blue. The method, then:
Normal human lung fibroblasts MRC-5 were cultured in minimal essential medium (MEM, Invitrogen) supplemented with 10% foetal calf serum (FCS), 1% L-glutamine–penicillin–streptomycin, 2% sodium bicarbonate, 1% non-essential amino acids (NEAA), and 1% sodium pyruvate. The cell line was maintained at 37 °C in 5% CO2 as an adherent monolayer and was passaged upon reaching confluence by standard cell culture techniques. MRC-5 cells were seeded at 2 × 10^4 cells per well in 96-well plates to ensure full confluence (quiescence). Cells were treated for 24 h after seeding with 0.1 to 1000 μM of compounds. After 72 h of drug incubation, the treated media was replaced with fresh media containing 10% Alamar Blue and the cells were incubated for another 6 h. The metabolic activity was detected by spectrophotometric analysis by assessing the absorbance of Alamar blue as previously described by Pasquier et al. Cell proliferation was determined and expressed as a percentage of untreated control cells. The determination of IC50 values was performed using GraphPad Prism 6 (San Diego, CA, USA). Each experiment was performed in triplicate and was repeated in three independent experiments.

Setting [1] is: Staphylococcus aureus, broth microdilution in MHB, 18–24 h.
Setting [2] is: Escherichia coli, broth microdilution in MHB, 18–24 h.
[3] abbreviates: broth microdilution in MHB, 18–24 h.
Where [4] appears, read: Staphylococcus aureus, Table 2, lysine derivative versus parent, read-out: MIC S. aureus.
Setting [5] is: Escherichia coli, Table 2, lysine derivative versus parent, read-out: MIC E. coli.

Values after ≈ are worked out from the molar mass of the structure shown. Where two headings read alike, the source gives them in different places. Where only a bound is given, the exact number is not on record here.

As to `NCCCNC(=O)[C@H](Cc1c[nH]c2ccccc12)NC(=O)c1cc(Br)ccc1NC(=O)c1ccc2ccccc2n1` [Compound 13e, (S)-N-(2-((1-((3-aminopropyl)amino)-3-(1H-indol-3-yl)-1-oxopropan-2-yl)carbamoyl)-4-bromophenyl)quinoline-2-carboxamide], the MIC90 against S. aureus (setting [1]) and against E. coli (setting [2]) was > 125 µM each time.
For `NCCNC(=O)[C@H](Cc1c[nH]c2ccccc12)NC(=O)c1cc(Br)ccc1N` [Compound 17, (S)-2-amino-N-(1-((2-aminoethyl)amino)-3-(1H-indol-3-yl)-1-oxopropan-2-yl)-5-bromobenzamide], the MIC90 against S. aureus (setting [1]) and against E. coli (setting [2]) was > 125 µM each time.
Regarding `NCCNC(=O)[C@H](Cc1c[nH]c2ccccc12)NC(=O)c1cc(-c2ccc(C(F)(F)F)cc2)ccc1N` [Compound 16d, (S)-4-amino-N-(1-((2-aminoethyl)amino)-3-(1H-indol-3-yl)-1-oxopropan-2-yl)-4′-(trifluoromethyl)-[1,1′-biphenyl]-3-carboxamide], the MIC90 with S. aureus (setting [1]) is 15.6 µM (≈ 7.95 µg/mL); against E. coli (setting [2]), > 125 µM.
For `COc1cc2ccccc2cc1C(=O)Nc1ccc(Br)cc1C(=O)N[C@@H](Cc1c[nH]c2ccccc12)C(=O)NCCN` [Compound 12d, (S)-N-(2-((1-((2-aminoethyl)amino)-3-(1H-indol-3-yl)-1-oxopropan-2-yl)carbamoyl)-4-bromophenyl)-3-methoxy-2-naphthamide], the half-inhibitory concentration (IC50) in the series on MRC-5 human fibroblasts was determined as 18.7 µM. Further, the results for the MIC90 with S. aureus (setting [1]) and against E. coli (setting [2]) were 7.8 µM (≈ 4.9 µg/mL) and > 125 µM, respectively.
`NCCNC(=O)[C@H](Cc1c[nH]c2ccccc12)NC(=O)c1cc(-c2ccc(F)cc2)ccc1N` [Compound 16c, (S)-4-amino-N-(1-((2-aminoethyl)amino)-3-(1H-indol-3-yl)-1-oxopropan-2-yl)-4′-fluoro-[1,1′-biphenyl]-3-carboxamide]: half-maximal inhibition in the series on MRC-5 human fibroblasts (IC50) required 34 µM. In addition, the MIC90 against S. aureus (setting [1]) was 31.2 µM (≈ 14.3 µg/mL); against E. coli (setting [2]) it was > 125 µM.
Turning to `NCCCNC(=O)[C@H](Cc1c[nH]c2ccccc12)NC(=O)c1cc(Br)ccc1NC(=O)Cc1cccc2ccccc12` [Compound 13b, (S)-N-(1-((3-aminopropyl)amino)-3-(1H-indol-3-yl)-1-oxopropan-2-yl)-5-bromo-2-(2-(naphthalen-1-yl)acetamido)benzamide], the MIC90 is 62.5 µM (≈ 39.2 µg/mL) against S. aureus (setting [1]) and > 125 µM in the series on E. coli (setting [2]).
Turning to `NCCNC(=O)[C@H](Cc1c[nH]c2ccccc12)NC(=O)c1cc(Br)ccc1NC(=O)c1ccccc1-c1ccccc1` [Compound 12i, (S)-N-(2-((1-((2-aminoethyl)amino)-3-(1H-indol-3-yl)-1-oxopropan-2-yl)carbamoyl)-4-bromophenyl)-[1,1′-biphenyl]-2-carboxamide], in the series with MRC-5 human fibroblasts, the midpoint of inhibition, the IC50, lay at 22.9 µM. Besides, the figures for the MIC90 with S. aureus (setting [1]) and against E. coli (setting [2]) were 15.6 µM (≈ 9.74 µg/mL) and > 125 µM, respectively.
For `NCCCNC(=O)[C@H](Cc1c[nH]c2ccccc12)NC(=O)c1cc(Br)ccc1NC(=O)c1ccc2ccccc2c1` [Compound 13a, (S)-N-(2-((1-((3-aminopropyl)amino)-3-(1H-indol-3-yl)-1-oxopropan-2-yl)carbamoyl)-4-bromophenyl)-2-naphthamide], the MIC90 against S. aureus (setting [1]) was 15.6 µM (≈ 9.56 µg/mL); in the series with E. coli (setting [2]), > 125 µM.
Take `NCCNC(=O)[C@H](Cc1c[nH]c2ccccc12)NC(=O)c1cc(Br)ccc1NC(=O)c1ccc2ccccc2n1` [Compound 12e, (S)-N-(2-((1-((2-aminoethyl)amino)-3-(1H-indol-3-yl)-1-oxopropan-2-yl)carbamoyl)-4-bromophenyl)quinoline-2-carboxamide]: the MIC90 against S. aureus (setting [1]) is 15.6 µM (≈ 9.35 µg/mL); in the series with E. coli (setting [2]), > 125 µM.
The like results for `NCCNC(=O)[C@H](Cc1c[nH]c2ccccc12)NC(=O)c1cc(Br)ccc1NC(=O)c1cccs1` [Compound 12g, (S)-N-(2-((1-((2-aminoethyl)amino)-3-(1H-indol-3-yl)-1-oxopropan-2-yl)carbamoyl)-4-bromophenyl)thiophene-2-carboxamide] were, in that order, 125 µM (≈ 69.3 µg/mL) and > 125 µM.
In turn, `CC(C)(C)c1ccc(-c2ccc(N)c(C(=O)N[C@@H](Cc3c[nH]c4ccccc34)C(=O)NCCN)c2)cc1` [Compound 16a, (S)-4-amino-N-(1-((2-aminoethyl)amino)-3-(1H-indol-3-yl)-1-oxopropan-2-yl)-4′-(tert-butyl)-[1,1′-biphenyl]-3-carboxamide] showed an IC50 in the series with MRC-5 human fibroblasts of 34.1 µM. In addition, the MIC90 was 7.8 µM (≈ 3.88 µg/mL) against S. aureus (setting [1]) and > 125 µM in the series with E. coli (setting [2]).
For Colistin [reference compound], the MIC90 against S. aureus (setting [3]) was 125 µM; with E. coli (setting [3]), 1 µM.
With `COc1ccc2ccccc2c1C(=O)Nc1ccc(Br)cc1C(=O)N[C@@H](Cc1c[nH]c2ccccc12)C(=O)NCCN` [Compound 12c, (S)-N-(2-((1-((2-aminoethyl)amino)-3-(1H-indol-3-yl)-1-oxopropan-2-yl)carbamoyl)-4-bromophenyl)-2-methoxy-1-naphthamide], the results for the MIC90 in the series on S. aureus (setting [1]) and against E. coli (setting [2]) were 15.6 µM (≈ 9.81 µg/mL) and > 125 µM, respectively.
Consider `NCCNC(=O)[C@H](Cc1c[nH]c2ccccc12)NC(=O)c1cc(Br)ccc1NC(=O)c1cc2ccccc2[nH]1` [Compound 12f, (S)-N-(2-((1-((2-aminoethyl)amino)-3-(1H-indol-3-yl)-1-oxopropan-2-yl)carbamoyl)-4-bromophenyl)-1H-indole-2-carboxamide], for which the MIC90 with S. aureus (setting [1]) was 125 µM (≈ 73.4 µg/mL); in the series on E. coli (setting [2]) it was > 125 µM.
For `NCCNC(=O)[C@H](Cc1c[nH]c2ccccc12)NC(=O)c1cc(Br)ccc1NC(=O)c1ccc(-c2ccccc2)cc1` [Compound 12k, (S)-N-(2-((1-((2-aminoethyl)amino)-3-(1H-indol-3-yl)-1-oxopropan-2-yl)carbamoyl)-4-bromophenyl)-[1,1′-biphenyl]-4-carboxamide], the IC50 with MRC-5 human fibroblasts is 12.7 µM. The MIC in the series on S. aureus (setting [4]) was 7.8 µM (≈ 4.87 µg/mL); in the series with E. coli (setting [5]), > 125 µM. Also, the MIC90 in the series with S. aureus (setting [1]) was 7.8 µM (≈ 4.87 µg/mL); with E. coli (setting [2]), > 125 µM.
Compound `NCCCC[C@H](N)C(=O)NCCNC(=O)[C@H](Cc1c[nH]c2ccccc12)NC(=O)c1cc(Br)ccc1NC(=O)c1ccc(-c2ccccc2)cc1` [Compound 19c, N-(4-bromo-2-(((S)-1-((2-((S)-2,6-diaminohexanamido)ethyl)amino)-3-(1H-indol-3-yl)-1-oxopropan-2-yl)carbamoyl)phenyl)-[1,1′-biphenyl]-4-carboxamide] registered an IC50 in the series on MRC-5 human fibroblasts of 150 µM. Moreover, the “toxicity to mammalian cells (in words)” value in the series on MRC-5 human fibroblasts (at 31.2 µM) is “non-toxic”. In addition, the MIC was 15.6 µM (≈ 11.7 µg/mL) in the series on S. aureus (setting [4]); 62.5 µM (≈ 47 µg/mL) in the series on E. coli (setting [5]); 15.6 µM (≈ 11.7 µg/mL) in the series on E. coli (Escherichia coli, broth microdilution in MHB, 18–24 h, read-out: MIC90 E. coli). Further, the values for the MIC90 against S. aureus (setting [1]) and against E. coli (setting [2]) were 15.6 µM (≈ 11.7 µg/mL) and 62.5 µM (≈ 47 µg/mL), respectively. For the same compound, the “improvement in antibacterial activity against E. coli compared to the parent compound” value with E. coli (versus parent 12a, 12j) is given as > 16 fold.
As to `COc1ccc2ccccc2c1C(=O)Nc1ccc(Br)cc1C(=O)N[C@@H](Cc1c[nH]c2ccccc12)C(=O)NCCCN` [Compound 13c, (S)-N-(2-((1-((3-aminopropyl)amino)-3-(1H-indol-3-yl)-1-oxopropan-2-yl)carbamoyl)-4-bromophenyl)-2-methoxy-1-naphthamide], it took 20.5 µM to reach half-maximal inhibition in the series with MRC-5 human fibroblasts (IC50). For the same compound, the MIC90 in the series on S. aureus (setting [1]) came to 15.6 µM (≈ 10 µg/mL); in the series on E. coli (setting [2]), 62.5 µM (≈ 40.2 µg/mL).
In the case of `NCCNC(=O)[C@H](Cc1c[nH]c2ccccc12)NC(=O)c1cc(Br)ccc1NC(=O)c1ccsc1` [Compound 12h, (S)-N-(2-((1-((2-aminoethyl)amino)-3-(1H-indol-3-yl)-1-oxopropan-2-yl)carbamoyl)-4-bromophenyl)thiophene-3-carboxamide], the results for the MIC90 against S. aureus (setting [1]) and against E. coli (setting [2]) were 125 µM (≈ 69.3 µg/mL) and > 125 µM, respectively.
Take `NCCNC(=O)[C@H](Cc1c[nH]c2ccccc12)NC(=O)c1cc(Br)ccc1NC(=O)Cc1cccc2ccccc12` [Compound 12b, (S)-N-(1-((2-aminoethyl)amino)-3-(1H-indol-3-yl)-1-oxopropan-2-yl)-5-bromo-2-(2-(naphthalen-1-yl)acetamido)benzamide]: the values for the MIC90 in the series with S. aureus (setting [1]) and with E. coli (setting [2]) were 62.5 µM (≈ 38.3 µg/mL) and > 125 µM, respectively. Also, the MIC in the series with S. aureus (Staphylococcus aureus, broth microdilution in MHB, 18–24 h, read-out: MIC90 S. aureus) was determined as 15.6 µM (≈ 9.56 µg/mL).

These data come from PMC10044445, “Tuning the Anthranilamide Peptidomimetic Design to Selectively Target Planktonic Bacteria and Biofilm” (Antibiotics, 2023).
